Laboratory results from PubChem BioAssay (NCI).
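A five-concentration, 48-hour dose response in 96-well plates underlies each endpoint, interpolated linearly between surrounding concentrations. GI50 is the concentration that inhibits growth by half. TGI marks complete inhibition of growth.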

How the values were obtained:
Assay in all cases: DTP human tumour cell line panel, 48 h
[1] = system: COLO 205 colon
[2] = system: HCT-15 colon
[3] = system: HL-60(TB) leukemia
[4] = system: HOP-92 NSCLC
[5] = system: KM12 colon
[6] = system: LOX IMVI melanoma
[7] = system: NCI-H226 lung
[8] = system: SNB-75 CNS
[9] = system: BT-549 breast
[10] = system: DU-145 prostate

SMILES	TGI [1]	TGI [2]	TGI [3]	TGI [4]	TGI [5]	TGI [6]	TGI [7]	TGI [8]	GI50 [9]	TGI [9]	GI50 [1]	GI50 [10]	TGI [10]	GI50 [2]	GI50 [4]	GI50 [5]	GI50 [6]	GI50 [8]	GI50 [3]	GI50 [7]
Cc1ccc(-c2nnc(-c3nn(-c4ccccc4)c4nc5ccccc5nc34)o2)cc1	> 100 µM	> 100 µM	> 100 µM	20.9 µM	> 100 µM	40.9 µM	30 µM	8.3 µM												
Cc1cccc(C)c1NC(=O)/C(=N/NC(N)=S)C(C)C(=O)c1ccc(Cl)cc1 (stereo unspecified)	> 100 µM	> 100 µM	> 100 µM	> 100 µM	> 100 µM		> 100 µM	> 100 µM												
CCN(CC)CC1c2ccccc2C(CNc2ccccc2)N1C (stereo unspecified)	> 100 µM	> 100 µM	> 100 µM	> 100 µM	> 100 µM	> 100 µM		> 100 µM												
O=C1c2cccnc2C(=O)c2c1c(C(=O)NCCCN1CCCCC1)c1ccccn21	0.928 µM	2.57 µM		4.9 µM	10.1 µM	2.03 µM		2.86 µM	2.47 µM	6.89 µM	0.268 µM	1.2 µM	2.61 µM	0.816 µM	2330 nM	990 nM	0.49 µM	1.36 µM		
Fc1ccc(/C=N/n2c(-c3ccc(F)c(Cl)c3)nn(CNc3ccccc3C(F)(F)F)c2=S)cc1	> 100 µM	> 100 µM	> 100 µM	63.8 µM	> 100 µM	> 100 µM	> 100 µM	> 100 µM			47.7 µM	> 100 µM	> 100 µM	79.4 µM	17600 nM	29300 nM	54.9 µM	> 100 µM	39400 nM	69.5 µM
COC(=O)C1(C)CCc2c(OC)ccc(OC)c2C1=O (stereo unspecified)	> 100 µM	> 100 µM	> 100 µM		> 100 µM	> 100 µM	> 100 µM	> 100 µM												
COc1cc(C(=O)C/C(CCC(=O)Nc2ccccc2[N+](=O)[O-])=N\NC(N)=O)ccc1O	> 100 µM	> 100 µM	> 100 µM	> 100 µM	> 100 µM	> 100 µM	> 100 µM	> 100 µM												
CN=c1ccc2nc3ccc(N)cc3sc-2c1	12.2 µM	68 µM	1.67 µM		20.1 µM	9.58 µM	41.4 µM	28.7 µM	11.5 µM	44.4 µM	2.57 µM	10.7 µM	23.5 µM	1.62 µM		2070 nM	1.87 µM	10.8 µM	354 nM	15.2 µM
Fc1ccc(C2SCc3nc4ccccc4n32)c(F)c1 (stereo unspecified)	> 100 µM	> 100 µM	56.2 µM	92.4 µM	> 100 µM	> 100 µM	> 100 µM	> 100 µM												
CS(=O)(=O)c1ccc(-c2cc(-c3ccc(S(C)(=O)=O)cc3)[n+](-c3cc(-c4ccc(S(C)(=O)=O)cc4)c([O-])c(-c4ccc(S(C)(=O)=O)cc4)c3)c(-c3ccc(S(C)(=O)=O)cc3)c2)cc1	> 100 µM	> 100 µM			> 100 µM	> 100 µM	> 100 µM	> 100 µM												
COc1ccc(-c2nc(Nc3cc(C)[nH]n3)c3ccccc3n2)cc1	3.61 µM	> 100 µM	> 35.2 µM	3.77 µM	29.1 µM		> 33.3 µM	2.27 µM	3.07 µM	12.6 µM	1.5 µM	3.75 µM	> 100 µM	1.34 µM	621 nM	99.4 nM		0.289 µM	1580 nM	1.62 µM
O=C1OC(Cc2ccccc2)(N2CCCC2=O)C1c1ccccc1 (stereo unspecified)	> 100 µM		> 100 µM	> 100 µM	> 100 µM		> 100 µM	> 100 µM												
CC/C=C\C/C=C\C/C=C\CCCCCCCC(=O)OCC(O)CO (stereo unspecified)	> 100 µM	> 88 µM	> 46 µM	> 100 µM	> 70.9 µM	> 59.6 µM	> 100 µM	> 100 µM												
O=C1CC(c2c[nH]c3ccccc23)C(=O)N1 (stereo unspecified)		> 100 µM	> 100 µM		> 100 µM		> 100 µM	> 100 µM												
CO/N=C(\COc1ccc2c(c1)[nH]c1ccccc12)c1ccc(F)cc1	> 100 µM	> 100 µM		55.2 µM	> 100 µM	> 100 µM	> 100 µM	89.6 µM	> 100 µM	> 100 µM	> 100 µM	> 100 µM	> 100 µM	> 100 µM	13700 nM	> 100000 nM	> 100 µM	9.17 µM		> 100 µM
CO[C@H]1CC(O[C@@H]2/C(C)=C/C[C@@H]3C[C@@H](C[C@]4(C=C[C@H](C)[C@@H](C5CCCCC5)O4)O3)OC(=O)[C@@H]3C=C(C)[C@@H](O)[C@H]4OC/C(=C\C=C\[C@@H]2C)[C@]43O)O[C@@H](C)C1O[C@H]1C[C@H](OC)[C@@H](O)[C@H](C)O1 (stereo partly specified)	3.71 µM			1.89 µM	3.54 µM		2.95 µM	3.6 µM	1.78 µM	3.24 µM	2.03 µM				301 nM	1770 nM		1.45 µM		1.45 µM
COc1cc2c3c(n(C)c(=O)c2cc1OC)-c1cc2c(cc1/C3=C\CCCCN1C(=O)c3ccccc3C1=O)OCO2	> 100 µM	50.5 µM		7.49 µM	> 100 µM	22.5 µM	31.4 µM	> 100 µM			6.28 µM			14.8 µM		59300 nM	10.7 µM	28.5 µM		12.8 µM
O=c1nc(NC2CCCCO2)ccn1CCO (stereo unspecified)	> 100 µM	> 100 µM	> 100 µM	> 100 µM	> 100 µM	> 100 µM	> 100 µM	> 100 µM												
NNC(=O)CS(=O)(=O)Nc1ncccn1	> 100 µM	> 100 µM		> 100 µM	> 100 µM	> 100 µM	> 100 µM	> 100 µM		> 100 µM			> 100 µM							
O=C(/C=C/c1cc2ccccc2[nH]c1=O)/C=C/c1cc2ccccc2[nH]c1=O	> 59.7 µM	> 100 µM	> 100 µM	> 100 µM	8.59 µM		38.1 µM	> 67.5 µM	6.86 µM	12.4 µM	10.2 µM	12.3 µM	> 70.3 µM	9.96 µM	> 100000 nM	4320 nM		> 26.3 µM	> 32300 nM	14.9 µM

SMILES	TGI [1]	TGI [2]	TGI [3]	TGI [4]	TGI [5]	TGI [6]	TGI [7]	TGI [8]	GI50 [9]	TGI [9]	GI50 [1]	GI50 [10]	TGI [10]	GI50 [2]	GI50 [4]	GI50 [5]	GI50 [6]	GI50 [8]	GI50 [3]	GI50 [7]
COc1cc2c(cc1C1COc3cc4occc4cc3C1=O)OCO2 (stereo unspecified)	> 100 µM	> 100 µM		> 100 µM	> 100 µM	> 100 µM	> 100 µM	> 100 µM		> 100 µM			> 100 µM							
OCC1OC(n2cnc3c(N/N=C\c4ccccn4)ncnc32)C(O)C1O (stereo unspecified)	> 100 µM	> 100 µM	0.204 µM		> 100 µM		> 100 µM	12.9 µM	0.256 µM	23 µM	0.622 µM	0.0389 µM	10.1 µM	0.129 µM		434 nM	0.0971 µM	0.613 µM	24.7 nM	0.525 µM
COc1ccc(-c2[nH]c3ccccc3c2-c2ccc(OC)cc2)cc1	16.8 µM	14.1 µM	6.03 µM	9.4 µM	6.64 µM	14.8 µM		6.61 µM			4.13 µM	3.58 µM	11.4 µM	3.56 µM	2240 nM	2480 nM	3.77 µM	1.47 µM	2030 nM	
O=C1NC(=O)C2C(=O)NC(=O)C1C2c1c(Cl)cccc1Cl (stereo unspecified)	> 56.3 µM	> 100 µM	> 63.4 µM	> 100 µM	> 100 µM	> 57.4 µM	> 100 µM	> 100 µM												
O=C(NN1C(=O)CSC12CCCCC2)c1[nH]c2ccc(Br)cc2c1-c1ccccc1	> 100 µM	39.7 µM		42.3 µM	33.4 µM	50.3 µM	55.7 µM	33.7 µM	20.1 µM	44.4 µM	26.9 µM	19.1 µM	38.8 µM	17.1 µM	20700 nM	16900 nM	22 µM	15.9 µM		23 µM
COC(=O)C1CC2CC(=NNC(N)=O)CC2C1 (stereo unspecified)	> 100 µM	> 100 µM	> 100 µM	> 100 µM	> 100 µM	> 100 µM		> 100 µM												
COc1ccc(-c2cc(Cc3cccs3)c(=O)[nH]n2)cc1	> 100 µM	> 100 µM		> 100 µM	> 100 µM		> 100 µM	> 100 µM												
N#CC(=C1C=CC(=NO)C=C1)c1ccc(Cl)cc1	34.5 µM	49.6 µM	9.6 µM	44.8 µM	3.98 µM	12 µM		> 100 µM												
COc1cc2nc(N3CCCC3)nc(NCCc3ccccc3)c2cc1OC		3.26 µM	4.25 µM	3.16 µM	3.74 µM		34 µM	2.89 µM	1.75 µM	3.51 µM		2.11 µM	5.11 µM	1.67 µM	1480 nM	1960 nM		1.52 µM	1850 nM	11.4 µM
C1CCC([PH+](C2CCCCC2)C2CCCCC2[PH+](C2CCCCC2)C2CCCCC2)CC1.[Au].[CH-]1CCCCC1CC1CCCC[N-]1 (stereo unspecified)	0.696 µM		0.833 µM	0.714 µM			2.7 µM	0.971 µM	0.33 µM	1.51 µM	0.262 µM	0.363 µM	2.2 µM		212 nM			0.23 µM	277 nM	0.561 µM
O=C(NC1CCCCC1)NS(=O)(=O)c1ccc2c(c1)CCC2	> 100 µM	> 100 µM	> 100 µM	> 100 µM	> 100 µM	> 100 µM	> 100 µM	> 100 µM												
N#CC(C#N)=C1NC(=O)CC(=O)N1	> 100 µM	> 100 µM	> 100 µM	> 100 µM	> 100 µM	> 100 µM	> 100 µM	> 100 µM												
CC1(O)C=CC(=O)C=C1	> 100 µM	31.7 µM	52.8 µM	> 100 µM	> 75.4 µM	52.5 µM	> 100 µM	> 100 µM												
Cc1ccc2c(C3Cc4ccccc4N3C(=O)/C=C\C(=O)O)c(C)[nH]c2c1 (stereo unspecified)	58.5 µM	72.5 µM	43.8 µM	84.1 µM	> 100 µM	> 100 µM	> 100 µM	> 100 µM												
Clc1ccc(Nc2nc3ccccc3nc2-c2cccs2)cc1Cl	> 100 µM	> 100 µM	78.3 µM	78.8 µM			> 100 µM	> 100 µM												
O=C1C(=C([O-])c2ccccc2)C(=O)c2ccccc21.O=C1C(=C([O-])c2ccccc2)C(=O)c2ccccc21.[Fe+2]	> 100 µM		> 100 µM	38.6 µM	> 100 µM	23.6 µM	> 100 µM	> 100 µM			38.2 µM				16100 nM	55100 nM	6.33 µM	61.5 µM	80900 nM	> 100 µM
O=C(/C=C\c1cccc([N+](=O)[O-])c1)/C=C/c1cccc([N+](=O)[O-])c1	7.94 µM	> 100 µM		43.9 µM	3.3 µM	4.56 µM	> 100 µM	66.6 µM	3.48 µM	12.5 µM	3.03 µM	3.49 µM	56 µM	5.1 µM	9920 nM	1730 nM	1.73 µM	13.3 µM		15.4 µM
CCCP1(=O)C=C(C)C(=C(Cl)Cl)C(C)=C1 (stereo unspecified)	> 100 µM	> 100 µM	54.7 µM	89.6 µM	67.9 µM															
CCOC(=O)C1C(=S)NC(=O)C1C#N (stereo unspecified)	> 100 µM	> 100 µM	> 100 µM	> 100 µM	> 100 µM	> 100 µM		> 100 µM												
CC(=O)Nc1ccc(SC#N)c2c(NC(C)=O)cccc12	> 100 µM	> 100 µM	71.5 µM	> 94.8 µM	> 100 µM	> 100 µM	> 100 µM	> 100 µM												
